pEC50: −log10 of the molar value.
Target: T1, human M4 muscarinic acetylcholine receptor (Homo sapiens, UniProt P08173)
T1 construct: expressed in transfected cells; host or cells: CHO-K1
T1 sequence (P08173 1-479): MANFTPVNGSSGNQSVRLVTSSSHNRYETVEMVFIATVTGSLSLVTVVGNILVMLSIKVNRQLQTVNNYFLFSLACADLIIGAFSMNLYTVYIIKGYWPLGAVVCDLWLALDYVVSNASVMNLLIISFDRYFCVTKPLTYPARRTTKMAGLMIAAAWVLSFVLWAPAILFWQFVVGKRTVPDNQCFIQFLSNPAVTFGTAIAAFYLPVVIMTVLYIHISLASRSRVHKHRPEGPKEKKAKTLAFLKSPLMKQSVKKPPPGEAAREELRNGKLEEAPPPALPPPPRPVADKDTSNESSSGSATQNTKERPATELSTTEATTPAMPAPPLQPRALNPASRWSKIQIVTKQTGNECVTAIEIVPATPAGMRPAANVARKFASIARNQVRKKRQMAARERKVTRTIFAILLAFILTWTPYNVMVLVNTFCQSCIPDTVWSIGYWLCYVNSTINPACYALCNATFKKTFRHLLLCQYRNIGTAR
Assay: human FLIPR-based M4 PAM assay (Ca2+ mobilization, CHO-K1 cells with human M4 receptor and Gαqi5)
Type: cell-based
Settings: acetylcholine at 20% of maximum response, read-out: M4 PAM IP
Procedure: In a typical experiment the M4 muscarinic acetylcholine receptor modulating activity of the compounds of the present invention was determined in accordance with the following experimental method. CHO-K1 cells stably transfected with human M4 receptor and chimeric G-protein Gαqi5 (Coward P, et al., Analytical Biochemistry, 270:242-248 (1999)) are thawed from liquid N2 storage, resuspended in growth medium, plated in black, clear bottom 384 well plates, and incubated 16-20 hours at 37° C., 5% CO2. On the day of assay, growth medium is removed, the cells are washed 2 times with wash buffer, and cells are incubated in dye loading buffer at 37° C., 5% CO2 for ˜1 hour. […] Next, 10 uL of acetylcholine is added (final concentration calculated so as to achieve 20% of the maximum acetycholine response), and the fluorescence reading is continued for 3.5 min. In some cases, a third addition of acetylcholine (final concentration calculated to achieve 70% of the maximal acetylcholine response) is performed. The resulting dose response curves are fit to a 4 parameter logistic equation and the final result is determined as the inflection point (IP) of the curve
CHO-K1 cells stably transfected with human M4 receptor and chimeric G-protein Gαqi5 are thawed from liquid N2 storage, resuspended in growth medium, plated in black, clear bottom 384 well plates, and incubated 16-20 hours at 37° C., 5% CO2.
On the day of assay, growth medium is removed, the cells are washed 2 times with wash buffer, and cells are incubated in dye loading buffer at 37° C., 5% CO2 for ˜1 h. […] Next, 10 uL of acetylcholine is added (final concentration calculated so as to achieve 20% of the maximum acetycholine response), and the fluorescence reading is continued for 3.5 min. In some cases, a third addition of acetylcholine (final concentration calculated to achieve 70% of the maximal acetylcholine response) is performed.

SMILES	pEC50
COCCOc1ccc(O[C@H]2CCN(c3nc4c(cc3C)C(=O)NC4)C[C@H]2F)cn1 (stereo in doubt) [Example 61, 2-((3R,4S)-3-fluoro-4-((6-(2-methoxyethoxy)pyridin-3-yl)oxy)piperidin-1-yl)-3-methyl-6,7-dihydro-5H-pyrrolo[3,4-b]pyridin-5-one]	6.87
COc1ccc(OC2CCN(c3nc4c(cc3C)C(=O)NC4)CC2)cn1 [Example 1, 2-(4-((6-methoxypyridin-3-yl)oxy)piperidin-1-yl)-3-methyl-6,7-dihydro-5H-pyrrolo[3,4-b]pyridin-5-one]	7.57
Cc1cc2c(nc1N1CCC(Oc3cccc(C#N)c3)CC1)CNC2=O [Example 3, 3-((1-(3-methyl-5-oxo-6,7-dihydro-5H-pyrrolo[3,4-b]pyridin-2-yl)piperidin-4-yl)oxy)benzonitrile]	7.60
Cc1cc2c(nc1N1CCC(Oc3ccc4c(cnn4C)c3)CC1)CNC2=O [Example 4, 3-methyl-2-(4-((1-methyl-1H-indazol-5-yl)oxy)piperidin-1-yl)-6,7-dihydro-5H-pyrrolo[3,4-b]pyridin-5-one]	7.31
Cc1cc2c(nc1N1CCC(Oc3ccccc3)CC1)CNC2=O [Example 5, 3-methyl-2-(4-phenoxypiperidin-1-yl)-6,7-dihydro-5H-pyrrolo[3,4-b]pyridin-5-one]	7.68
Cc1cc2c(nc1N1CC[C@@H](Oc3ccc4[nH]ncc4c3)[C@@H](F)C1)CNC2=O [Example 8, 2-((3S,4R)-4-((1H-indazol-5-yl)oxy)-3-fluoropiperidin-1-yl)-3-methyl-6,7-dihydro-5H-pyrrolo[3,4-b]pyridin-5-one]	7.85
Cc1cc2c(nc1N1CCC(OCC3CC3)CC1)CNC2=O [Example 9, 2-(4-(cyclopropylmethoxy)piperidin-1-yl)-3-methyl-6,7-dihydro-5H-pyrrolo[3,4-b]pyridin-5-one]	7.08
Cc1cc2c(nc1N1CCC(Oc3ccc4c(c3)C(=O)N(C3CC3)C4)CC1)CNC2=O [Example 10, 2-(4-((2-cyclopropyl-3-oxoisoindolin-5-yl)oxy)piperidin-1-yl)-3-methyl-6,7-dihydro-5H-pyrrolo[3,4-b]pyridin-5-one]	6.75
Cc1cc2c(nc1N1CCC(Oc3cccc(C#N)c3)CC1)CN(C)C2=O [Example 11, 3-((1-(3,6-dimethyl-5-oxo-6,7-dihydro-5H-pyrrolo[3,4-b]pyridin-2-yl)piperidin-4-yl)oxy)benzonitrile]	7.42
Cc1cc2c(nc1N1CCC(Oc3ccc4[nH]ncc4c3)CC1)CN(C)C2=O [Example 12, 2-(4-((1H-indazol-5-yl)oxy)piperidin-1-yl)-3,6-dimethyl-6,7-dihydro-5H-pyrrolo[3,4-b]pyridin-5-one]	7.80
Cc1cc2c(nc1N1CCC(Oc3cccc(C#N)c3)CC1)C(C)N(C)C2=O (centres unmarked) [Example 13, 3-((1-(3,6,7-trimethyl-5-oxo-6,7-dihydro-5H-pyrrolo[3,4-b]pyridin-2-yl)piperidin-4-yl)oxy)benzonitrile]	6.76
Cc1cc2c(nc1N1CCC(Oc3ccc4[nH]ncc4c3)CC1)C(C)N(C)C2=O (centres unmarked) [Example 14, 2-(4-((1H-indazol-5-yl)oxy)piperidin-1-yl)-3,6,7-trimethyl-6,7-dihydro-5H-pyrrolo[3,4-b]pyridin-5-one]	7.28
Cc1cc2c(nc1N1CCC(Oc3cccc(C#N)c3)CC1)C(C)(C)N(C)C2=O [Example 15, 3-((1-(3,6,7,7-tetramethyl-5-oxo-6,7-dihydro-5H-pyrrolo[3,4-b]pyridin-2-yl)piperidin-4-yl)oxy)benzonitrile]	5.70
COc1ccc(OC2CCN(c3nc4c(cc3C)C(=O)N(C)C4C)CC2)cn1 (centres unmarked) [Example 16, 2-(4-((6-methoxypyridin-3-yl)oxy)piperidin-1-yl)-3,6,7-trimethyl-6,7-dihydro-5H-pyrrolo[3,4-b]pyridin-5-one]	7.09
COc1ccc(OC2CCN(c3nc4c(cc3C)C(=O)N(C)C4(C)C)CC2)cn1 [Example 17, 2-(4-((6-methoxypyridin-3-yl)oxy)piperidin-1-yl)-3,6,7,7-tetramethyl-6,7-dihydro-5H-pyrrolo[3,4-b]pyridin-5-one]	5.93
COc1ccc(OC2CCN(c3nc4c(cc3C)C(=O)N(C)C4)CC2)cn1 [Example 18, 2-(4-((6-methoxypyridin-3-yl)oxy)piperidin-1-yl)-3,6-dimethyl-6,7-dihydro-5H-pyrrolo[3,4-b]pyridin-5-one]	7.44
Cc1cc2c(nc1N1CC[C@H](Oc3cccc(C#N)c3)[C@H](F)C1)CNC2=O [Example 19, 3-(((3R,4S)-3-fluoro-1-(3-methyl-5-oxo-6,7-dihydro-5H-pyrrolo[3,4-b]pyridin-2-yl)piperidin-4-yl)oxy)benzonitrile]	7.24
Cc1cc2c(nc1N1CC[C@H](Oc3cccc(C#N)c3)[C@@H](F)C1)CNC2=O [Example 20, 3-(((3S,4S)-3-fluoro-1-(3-methyl-5-oxo-6,7-dihydro-5H-pyrrolo[3,4-b]pyridin-2-yl)piperidin-4-yl)oxy)benzonitrile]	7.08
Cc1cc2c(nc1N1CC[C@@H](Oc3cccc(C#N)c3)[C@H](F)C1)CNC2=O [Example 21, 3-(((3R,4R)-3-fluoro-1-(3-methyl-5-oxo-6,7-dihydro-5H-pyrrolo[3,4-b]pyridin-2-yl)piperidin-4-yl)oxy)benzonitrile]	7.30

The next lines start with the values.

pEC50	SMILES
6.17	Cc1cc2c(nc1N1CCC(Oc3cnc4c(c3)CC[C@H]4O)CC1)CNC2=O (single isomer, unassigned) [Example 324D]
7.33	Cc1c(N2CCC(OC[C@@]3(C)CC3(F)F)CC2)nc2c(c1C)C(=O)NC2 (single isomer, unassigned) [Example 329A]
7.70	Cc1c(N2CCC(Oc3ccc4c(c3)COC4)CC2)nc2c(c1C)C(=O)N(C)[C@@H]2CO (single isomer, unassigned) [Example 337A]
6.06	Cc1c(N2CCC(Oc3ccc4c(c3)COC4)CC2)nc2c(c1C)C(=O)N(C)[C@H]2CO (single isomer, unassigned) [Example 337B]
7.38	Cc1c(N2CCC(Oc3ccc4c(c3)COCC4)CC2)nc2c(c1C)C(=O)N(C)[C@@H]2CO (single isomer, unassigned) [Example 337C]
6.21	Cc1c(N2CCC(Oc3ccc4c(c3)COCC4)CC2)nc2c(c1C)C(=O)N(C)[C@H]2CO (single isomer, unassigned) [Example 337D]
6.38	CCc1cc2c(nc1N1CC[C@@H](OCC3(C)CC3)C(F)(F)C1)CNC2=O (single isomer, unassigned) [Example 374A]
7.35	CCc1cc2c(nc1N1CC[C@H](OCC3(C)CC3)C(F)(F)C1)CNC2=O (single isomer, unassigned) [Example 374B]
5.56	Cc1cc2c(nc1N1CCC(OC(F)F)CC1)CNC2=O [Example 4A, 2-(4-(difluoromethoxy)piperidin-1-yl)-3-methyl-6,7-dihydro-5H-pyrrolo[3,4-b]pyridin-5-one]
6.92	CCc1cc2c(nc1N1CC[C@@H](Oc3ccc4c(cnn4C)c3)[C@@H](F)C1)CNC2=O [Example 5A, 3-ethyl-2-((3S,4R)-3-fluoro-4-((1-methyl-1H-indazol-5-yl)oxy)piperidin-1-yl)-6,7-dihydro-5H-pyrrolo[3,4-b]pyridin-5-one]
6.82	CCc1cc2c(nc1N1CC[C@H](OCC3(C)CC3)[C@@H](F)C1)CNC2=O [Example 6A, 3-ethyl-2-((3S,4S)-3-fluoro-4-((1-methylcyclopropyl)methoxy)piperidin-1-yl)-6,7-dihydro-5H-pyrrolo[3,4-b]pyridin-5-one]
7.06	Cc1cc2c(nc1N1CCC(OC[C@@]3(C)CC3(F)F)CC1)CNC2=O [Example 8A, (R)-2-(4-((2,2-difluoro-1-methylcyclopropyl)methoxy)piperidin-1-yl)-3-methyl-6,7-dihydro-5H-pyrrolo[3,4-b]pyridin-5-one]
6.30	Cc1cc2c(nc1N1CCC(OC[C@]3(C)CC3(F)F)CC1)CNC2=O [Example 8B, (S)-2-(4-((2,2-difluoro-1-methylcyclopropyl)methoxy)piperidin-1-yl)-3-methyl-6,7-dihydro-5H-pyrrolo[3,4-b]pyridin-5-one]

Source: patent publication US10329289B2, “6,7-dihydro-5H-pyrrolo[3,4-B]pyridin-5-one allosteric modulators of the M4 muscarinic acetylcholine receptor” (Merck Sharp & Dohme Corp., priority 2015, dated 2019)
